Results: PMC11677527, “Predicting Pharmacokinetics of Active Constituents in Spatholobi caulis by Using Physiologically Based Pharmacokinetic Models” (Pharmaceuticals, 2024)
Where two headings read alike, the source gives them in different places.

Tests used:
[1] = Verification pharmacokinetic experiment in rats, SPC 60 g crude drug/kg by gavage, UFLC-MS/MS, DAS 2.0; type: in vivo, rat
Method: To validate the accuracy of PBPK models in predicting the pharmacokinetics of SPC constituents at different oral doses, the pharmacokinetic behavior of these four constituents from SPC in rats were analyzed by UFLC-MS/MS. The parameters were calculated using Drug and Statistics Software version 2.0, and then these validated values (Val.) were used to check the accuracy of the Calc. values and evaluated by FE.
The pharmacokinetic fitting results of rats given 60 g crude drug/kg body weight of SPC by gavage were verified by experiments. The verification experiment was conducted according to our previous pharmacokinetic study. In brief, 1.5 mL suspension of SPC was given to rats by oral administration; 300 μL blood samples from orbital venous at 0.083, 0.25, 0.5, 0.75, 1.0, 1.5, 2, 3, 4, 6, 8, and 12 h were collected and pretreated with heparin sodium. After centrifugation, the plasma samples were obtained and further processed for subsequent detection by UFLC-MS/MS; the detailed analysis method is shown in Supplementary Data (Table S1 and Figure S1). The concentration-time curve of each compound was gained, and the pharmacokinetic parameters were calculated using DAS 2.0 software (DAS 2.0, Mathematical Pharmacology Professional Committee of China, Shanghai, China). The results of these four constituents were compared with the PBPK parameters predicted in rats at an oral dose of 60 g crude drug/kg body weight of SPC.
1. The instrument and analytical conditions of UFLC-MS/MS method
4 constituents (1. 3′-methoxydadizein; 2. 8-O-methylretusin; 3. Daidzin; and 4. […]
The internal standard (IS) carbamazepine with a purity of more than 99 % was purchased from Beijing JK-chemical technology Co. Ltd., (Beijing China). Heparin sodium was gained from Tianjin biochemical pharmaceutical Co. Ltd, (Tianjin, China).
Ammonium acetate of HPLC grade, methanol and acetonitrile of LC-MS grade were purchased from Sigma (LOT# BCBK6717V, sigma-aldrich, Co., MO, USA) and Fisher (Fisher Corp., Fair lawn, NJ, USA) respectively. The experimental ultrapure water was prepared by Millipore Milli-Q ultrapure water preparation apparatus (Millipore Sigma, […]
The detailed information of Shimadzu UFLC-MS/MS 8050 liquid mass system equipped with Nexera X2UFLC liquid chromatography system and 8050 triple quadrupole mass spectrometers with an electrospray ionization source were listed in our previous study. The supporting LabSolution workstation was used for data […]
The separation without superposition of analytes in plasma sample was achieved on a Kinetex® C18 chromatographic column (100mm×2.1mm i.d.; 2.6 μm, 100 Å; Phenomenex, Inc., Torrance, CA, USA) assembled with a Phenomenex p/n AJ0-9000 C18 protection column. The mobile phase was consisted of 0.5 mM ammonium acetate in water (A) and ACN (B). The gradient elution program was selected ultimately as […]
95 % B (18.7–22 min). Column and automatic sampler temperature were set as 30 °C and 4 °C respectively. The flow rate of mobile phase was 0.35 mL/min while sample injection volume was 4 μL.
Multiple reaction monitoring (MRM) of positive or negative modes were used as scanning modes for the analytes and IS. Other essential parameters were successively optimized as: Nebulizing gas flow, 3 L/min; Heating gas flow, 10 L/min; Drying gas flow, 10 L/min; Interface temperature, 300 °C; DL temperature, 250 °C; Interface and detector voltage were each set as 3.0 kV and 1.8 kV. The detection parameters such as retention time (RT), dwell time (DT), quadrupole 1 pre-rod bias (Q1), collision energy […]
Table S1 The retention time and ion equivalent parameters of 4 constituents in rat […]
Constituents Retention Precursor Precursor Product time Pre energy Pre time (min) ion species ion ion (msec) Bias (V) Bias

Caco-2 cell monolayer = tested on: Caco-2 cell monolayer; parameters: method as in PMID 36680806, PMID 26501241; conditions: Caco-2 cell monolayer model; cited from earlier work
[2] = parameters: method as in PMID 34303214; conditions: rats, p.o. SPC 30 g crude drug/kg; doses of 1-4: 0.062, 0.11, 0.71, 1.31 mg/kg; cited from earlier work
[3] = Observed pharmacokinetics in rats after oral SPC (previous study); type: in vivo, rat; conditions: p.o. SPC
[4] = compartment model parameters, DAS 2.0, rats p.o. SPC 60 g crude drug/kg, Mean, 5 rats
[5] = statistical moment parameters, DAS 2.0, rats p.o. SPC 60 g crude drug/kg, Mean, 5 rats
[6] = statistical moment parameters, DAS 2.0, rats p.o. SPC 60 g crude drug/kg, Mean, 5 rats, in µg·h²/mL

K10 [1, 4]: 7.512 h⁻¹ | K12 [1, 4]: 0.448 h⁻¹ | K21 [1, 4]: 0.247 h⁻¹ | Ka [1, 4]: 5.032 h⁻¹ | Tlag [1, 4]: 0 h | V1/F [1, 4]: 29.573 L/kg | t1/2Ka [1, 4]: 10.5 min | t1/2α [1, 4]: 26 min | concentration at 0.083 h ([1]; rat, plasma, oral, time 0.083 h, rats p.o. SPC 60 g crude drug/kg, doses of 1-4: 0.124, 0.22, 1.4, 2.62 mg/kg, 5 rats): 15.4 ng/mL | concentration at 0.25 h ([1]; rat, plasma, oral, time 0.25 h, rats p.o. SPC 60 g crude drug/kg, doses of 1-4: 0.124, 0.22, 1.4, 2.62 mg/kg, 5 rats): 41.5 ng/mL | concentration at 0.5 h ([1]; rat, plasma, oral, time 0.5 h, rats p.o. SPC 60 g crude drug/kg, doses of 1-4: 0.124, 0.22, 1.4, 2.62 mg/kg, 5 rats): 41.7 ng/mL | concentration at 0.75 h ([1]; rat, plasma, oral, time 0.75 h, rats p.o. SPC 60 g crude drug/kg, doses of 1-4: 0.124, 0.22, 1.4, 2.62 mg/kg, 5 rats): 27.6 ng/mL | concentration at 1 h ([1]; rat, plasma, oral, time 1 h, rats p.o. SPC 60 g crude drug/kg, doses of 1-4: 0.124, 0.22, 1.4, 2.62 mg/kg, 5 rats): 22.2 ng/mL | concentration at 1.5 h ([1]; rat, plasma, oral, time 1.5 h, rats p.o. SPC 60 g crude drug/kg, doses of 1-4: 0.124, 0.22, 1.4, 2.62 mg/kg, 5 rats): 8.29 ng/mL | concentration at 2 h ([1]; rat, plasma, oral, time 2 h, rats p.o. SPC 60 g crude drug/kg, doses of 1-4: 0.124, 0.22, 1.4, 2.62 mg/kg, 5 rats): 7.03 ng/mL | concentration at 3 h ([1]; rat, plasma, oral, time 3 h, rats p.o. SPC 60 g crude drug/kg, doses of 1-4: 0.124, 0.22, 1.4, 2.62 mg/kg, 5 rats): 4.27 ng/mL | concentration at 4 h ([1]; rat, plasma, oral, time 4 h, rats p.o. SPC 60 g crude drug/kg, doses of 1-4: 0.124, 0.22, 1.4, 2.62 mg/kg, 5 rats): 3.41 ng/mL | concentration at 6 h ([1]; rat, plasma, oral, time 6 h, rats p.o. SPC 60 g crude drug/kg, doses of 1-4: 0.124, 0.22, 1.4, 2.62 mg/kg, 5 rats): 2.01 ng/mL | AUC(0-t) ([1]; rat, plasma, po, 2.62 mg/kg, compartment model parameters, DAS 2.0, rats p.o. SPC 60 g crude drug/kg, Mean, 5 rats, read-out: AUC(0-t)): 46.4 ng·h/mL | AUC(0-inf) ([1]; rat, plasma, po, 2.62 mg/kg, compartment model parameters, DAS 2.0, rats p.o. SPC 60 g crude drug/kg, Mean, 5 rats, read-out: AUC(0-∞)): 52.8 ng·h/mL | CL/F ([1]; rat, plasma, po, 2.62 mg/kg, compartment model parameters, DAS 2.0, rats p.o. SPC 60 g crude drug/kg, Mean, 5 rats, read-out: CL/F (converted)): 1660 mL/min/kg | half-life ([1]; rat, plasma, po, 2.62 mg/kg, compartment model parameters, DAS 2.0, rats p.o. SPC 60 g crude drug/kg, Mean, 5 rats, read-out: t1/2β (converted)): 1050 min | AUC(0-t) ([1]; rat, plasma, po, 2.62 mg/kg, rats, p.o. SPC 60 g crude drug/kg, doses of 1-4: 0.124, 0.22, 1.42, 2.62 mg/kg, n = 5, read-out: AUC0→t Val.): 55.7 ng·h/mL | AUC(0-inf) ([1]; rat, plasma, po, 2.62 mg/kg, rats, p.o. SPC 60 g crude drug/kg, doses of 1-4: 0.124, 0.22, 1.42, 2.62 mg/kg, n = 5, read-out: AUC0→∞ Val.): 59.3 ng·h/mL | Cmax ([1]; rat, plasma, po, 2.62 mg/kg, rats, p.o. SPC 60 g crude drug/kg, doses of 1-4: 0.124, 0.22, 1.42, 2.62 mg/kg, n = 5, read-out: Cmax Val.): 41.7 ng/mL | AUC(0-t) ([1]; rat, plasma, po, 2.62 mg/kg, statistical moment parameters, DAS 2.0, rats p.o. SPC 60 g crude drug/kg, Mean, 5 rats, read-out: AUC(0-t)): 55.7 ng·h/mL | AUC(0-inf) ([1]; rat, plasma, po, 2.62 mg/kg, statistical moment parameters, DAS 2.0, rats p.o. SPC 60 g crude drug/kg, Mean, 5 rats, read-out: AUC(0-∞)): 59.3 ng·h/mL | CL/F ([1]; rat, plasma, po, 2.62 mg/kg, statistical moment parameters, DAS 2.0, rats p.o. SPC 60 g crude drug/kg, Mean, 5 rats, read-out: CLz/F (converted)): 738 mL/min/kg | Cmax ([1]; rat, plasma, po, 2.62 mg/kg, statistical moment parameters, DAS 2.0, rats p.o. SPC 60 g crude drug/kg, Mean, 5 rats, read-out: Cmax): 41.7 ng/mL | MRT last ([1]; rat, plasma, po, 2.62 mg/kg, statistical moment parameters, DAS 2.0, rats p.o. SPC 60 g crude drug/kg, Mean, 5 rats, read-out: MRT(0-t)): 1.48 h | MRT inf ([1]; rat, plasma, po, 2.62 mg/kg, statistical moment parameters, DAS 2.0, rats p.o. SPC 60 g crude drug/kg, Mean, 5 rats, read-out: MRT(0-∞)): 2.08 h | Tmax ([1]; rat, plasma, po, 2.62 mg/kg, statistical moment parameters, DAS 2.0, rats p.o. SPC 60 g crude drug/kg, Mean, 5 rats, read-out: Tmax): 18 min | Vd/F ([1]; rat, plasma, po, 2.62 mg/kg, statistical moment parameters, DAS 2.0, rats p.o. SPC 60 g crude drug/kg, Mean, 5 rats, read-out: Vz/F): 111 L/kg | half-life ([1]; rat, plasma, po, 2.62 mg/kg, statistical moment parameters, DAS 2.0, rats p.o. SPC 60 g crude drug/kg, Mean, 5 rats, read-out: t1/2z (converted)): 104 min | Cz [1, 5]: 1.39 µg/L | VRT(0-t) [1, 5]: 2.067 h^2 | VRT(0-∞) [1, 5]: 6.027 h^2 | elimination rate constant [1, 5]: 0.412 h⁻¹ | AUMC(0-t) [1, 6]: 82.484 | AUMC(0-∞) [1, 6]: 123.911 | time of slight secondary absorption peak [3]: 6 h
SMILES: COc1cc([C@H]2c3cc(O)c(OC)cc3C[C@@H](CO)[C@@H]2CO)ccc1O [Constituent 4, isolariciresinol]
Papp (Caco-2 cell monolayer): 2.2e-06 cm/s | AUC0→t Obs. [2]: 0.0347 µg·h/mL | AUC0→∞ Obs. [2]: 0.0383 µg·h/mL | Cmax Obs. [2]: 0.0262 µg/mL | Tmax Obs. [2]: 18.6 min
